Assay results published in US4847247A, “Penicillin derivatives as anti-inflammatory and antidegenerative agents” (Merck & Co., Inc., priority 1986, dated 1989).

Target: T1, Human Polymorphonuclear Leukocyte Elastase (Homo sapiens, UniProt P08246)
T1 construct: Crude extract of human polymorphonuclear leukocytes (PMN) containing elastase activity; endogenous in cells; host or cells: human polymorphonuclear leukocytes (crude extract)
T1 sequence (P08246 30-247 limits assumed): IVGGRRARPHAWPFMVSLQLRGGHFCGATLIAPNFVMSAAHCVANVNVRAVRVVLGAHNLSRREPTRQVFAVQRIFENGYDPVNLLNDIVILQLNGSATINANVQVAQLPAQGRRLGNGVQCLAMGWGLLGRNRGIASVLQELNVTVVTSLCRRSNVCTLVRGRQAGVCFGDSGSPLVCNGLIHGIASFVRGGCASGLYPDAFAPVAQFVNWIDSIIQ
Test: Inhibition of human polymorphonuclear leukocyte (granulocyte) elastase via hydrolysis of Boc-AAPAN
Type: biochemical
Settings: not given
Experimental: Enzyme assay for the Inhibition of Human Polymorphonuclear Leukocyte Elastase Via Hydrolysis of N-t-Boc-alanyl-alanyl-prolylalanine-p-nitroanilide
0.05M TES (N-tris[hydroxymethyl]methyl-2-amino-ethanesulfonic acid) buffer, pH 7.5.
0.2 mM N-t-Boc-alanyl-alanyl-prolyl-alanine-p-nitroanilide (Boc-AAPAN).
To prepare substrate, the solid (m.w. 550) was first dissolved in 10.0 ml DMSO. Buffer at pH 7.5 was then added to a final volume of 100 ml.
Crude extract of human polymorphonuclear leukocytes (PMN) containing elastase activity.
Inhibitors (cephalosporin sulfoxide esters) to be tested dissolved in DMSO just before use.
To 1.0 ml of 0.2 mM Boc-AAPAN in a cuvette, 0.01-0.1 ml of DMSO with or without inhibitor was added. After mixing, a measurement was taken at 410 mμ to detect any spontaneous hydrolysis due to of test compound. 0.05 Milliliters of PMN extract was then added and the αOD/minute at 410 mμ was measured and recorded. Beckman model 35 spectrophotometer was used.
The elastase activity in the crude PMN extract may vary from one preparation to another. A control of each new batch is run, and the volume added in the assay procedure is adjusted according to activity.

Structure (SMILES) | IC50 [nM]
CN(C(=O)C(F)(F)F)[C@H]1C(=O)N2[C@@H](C(=O)OCc3ccccc3)C(C)(C)S(=O)(=O)[C@H]12 [6α-CF3 CON(CH3) / 2 / OBZ, Benzyl 6α-(N-methyltrifluoroacetamido)penicillanate-1,1-dioxide] | 446
CC1(C)[C@H](C(=O)OCc2ccccc2)N2C(=O)[C@H](NC(=O)C(F)(F)F)[C@H]2S1(=O)=O [6α-CF3 CONH / 2 / OBZ, Benzyl 6α-trifluoroacetamidopenicillanate-1,1-dioxide] | 345

Same assay, conditions: crude human PMN extract, 0.2 mM Boc-AAPAN, pH 7.5, 410 mμ, 2 minutes after zero time; read-out: IC50 (dosage for 50% inhibition of the enzyme activity) (converted)

IC50 [nM] | Structure (SMILES)
8410 | Cc1ccc(S(=O)(=O)C[C@H]2C(=O)N3[C@@H]2[S+]([O-])C(C)(C)[C@@H]3C(=O)OCc2ccccc2)cc1 (stereo partly drawn) [6α-(TS)CH2 / 1 / OBZ]
4070 | Cc1ccc(S(=O)(=O)C[C@H]2C(=O)N3[C@@H](C(=O)OCc4ccccc4)C(C)(C)S(=O)(=O)[C@H]23)cc1 [6α-(TS)CH2 / 2 / OBZ (2nd)]
610 | Cc1ccc(S(=O)(=O)C[C@H]2C(=O)N3[C@@H](C(=O)OCc4ccccc4)C(C)(C)S(=O)(=O)[C@H]23)cc1 [6α-(TS)CH2 / 2 / OBZ]
217 | Cc1ccc(S(=O)(=O)N[C@H]2C(=O)N3[C@@H]2SC(C)(C)[C@@H]3C(=O)OCc2ccccc2)cc1 [6α-(TS)NH / 0 / OBZ]
406 | Cc1ccc(S(=O)(=O)N[C@H]2C(=O)N3[C@@H](C(=O)OCc4ccccc4)C(C)(C)S(=O)(=O)[C@H]23)cc1 [6α-(TS)NH / 2 / OBZ]
1080 | CC1(C)[C@H](C(=O)OCc2ccc(C(=O)O)cc2)N2C(=O)[C@H](NC(=O)C(F)(F)F)[C@H]2[S+]1[O-] (stereo partly drawn) [6α-CF3 (CO)NH / 1 / OBZ(p-COOH)]
12000 | CN(CC(=O)O)C(=O)[C@@H]1N2C(=O)[C@H](NC(=O)C(F)(F)F)[C@H]2S(=O)(=O)C1(C)C [6α-CF3 (CO)NH / 2 / N(CH3)(CH2 COOH)]
1480 | CN(CC(=O)OC(C)(C)C)C(=O)[C@@H]1N2C(=O)[C@H](NC(=O)C(F)(F)F)[C@H]2S(=O)(=O)C1(C)C [6α-CF3 (CO)NH / 2 / N(CH3)(CH2 COOtBu)]
1420 | CN(Cc1ccc(C(=O)O)cc1)C(=O)[C@@H]1N2C(=O)[C@H](NC(=O)C(F)(F)F)[C@H]2S(=O)(=O)C1(C)C [6α-CF3 (CO)NH / 2 / N(CH3)BZ(p-COOH)]
1280 | CN(Cc1ccc(C(=O)OC(C)(C)C)cc1)C(=O)[C@@H]1N2C(=O)[C@H](NC(=O)C(F)(F)F)[C@H]2S(=O)(=O)C1(C)C [6α-CF3 (CO)NH / 2 / N(CH3)BZ(p-COOtBu)]
83.6 | CC1(C)[C@H](C(=O)OCc2ccc(C(=O)O)cc2)N2C(=O)[C@H](NC(=O)C(F)(F)F)[C@H]2S1(=O)=O [6α-CF3 (CO)NH / 2 / OBZ(p-COOH)]
187 | CC(C)(C)OC(=O)c1ccc(COC(=O)[C@@H]2N3C(=O)[C@H](NC(=O)C(F)(F)F)[C@H]3S(=O)(=O)C2(C)C)cc1 [6α-CF3 (CO)NH / 2 / OBZ(p-COOtBu)]
40200 | CC(C)(C)OC(=O)[C@@H]1CCCN1C(=O)[C@@H]1N2C(=O)[C@H](NC(=O)C(F)(F)F)[C@H]2S(=O)(=O)C1(C)C [6α-CF3 (CO)NH / 2 / drawing 31]
7200 | CN(C(=O)C(F)(F)F)[C@H]1C(=O)N2[C@@H]1SC(C)(C)[C@@H]2C(=O)OCc1ccccc1 [6α-CF3 CON(CH3) / 0 / OBZ, benzyl 6α-(N-methyltrifluoroacetamido)penicillinate]
6940 | CN(C(=O)C(F)(F)F)[C@H]1C(=O)N2[C@@H]1[S+]([O-])C(C)(C)[C@@H]2C(=O)OCc1ccccc1 (stereo partly drawn) [6α-CF3 CON(CH3) / 1 / OBZ]
9940 | CC1(C)S[C@@H]2[C@@H](NC(=O)C(F)(F)F)C(=O)N2[C@H]1C(=O)OCc1ccccc1 [6α-CF3 CONH / 0 / OBZ, Benzyl 6α-trifluoroacetamidopenicillanate]
235 | CC1(C)[C@H](C(=O)OCC(F)(F)F)N2C(=O)[C@H](NC(=O)C(F)(F)F)[C@H]2S1(=O)=O [6α-CF3 CONH / 2 / OCH2 CF3]
11000 | CC1(C)S[C@@H]2[C@@H](COC(=O)NCc3ccccc3)C(=O)N2[C@H]1C(=O)OCc1ccccc1 [6α-CH2 O(CO)NH(BZ) / 0 / OBZ]
